According to PMC3693772, “Protein expression, biochemical pharmacology of signal transduction, and relation to intraocular pressure modulation by bradykinin B2 receptors in ciliary muscle” (Molecular Vision, 2013):

How the values were obtained:
[1] = system: ERK1/2 phosphorylation, CHO-B2 cells; experiment: ERK1/2 phosphorylation in CHO-B2 cells (HTRF); format: cell-based, Chinese hamster ovary cells, human cloned B2 receptor; settings: high basal background
h-TM cells = settings: ref [23]; cited from earlier work

Substance: H-RPPGFSPFR-OH [BK]
- ERK1/2 phosphorylation response in CHO-B2 cells [1]: did not obtain a meaningful response
- ERK1/2 phosphorylation in h-TM cells (h-TM cells): stimulate ERK1/2 phosphorylation
